In the NIST ThermoML archive (doi:10.1021/je0603325):
± gives the expanded uncertainty stated by the source.

Test: molar heat capacity at constant pressure; xn = mol fraction of the nth substance listed
Details: 101 kPa, Liquid, Small sample (50 mg) DSC

BrCCBr [1,2-dibromoethane] + CCCCCCC
molar heat capacity at constant pressure [J/K/mol]
Details | x1 = 0.1016 | x1 = 0.2016 | x1 = 0.2989 | x1 = 0.3977 | x1 = 0.4996 | x1 = 0.5991 | x1 = 0.6928 | x1 = 0.8022 | x1 = 0.9003 | x1 = 1
293.15 K | 213.58 ± 3.3 | 204.39 ± 3.2 | 196.15 ± 3 | 187.73 ± 2.9 | 179.31 ± 2.8 | 170.59 ± 2.6 | 162.47 ± 2.5 | 153.18 ± 2.4 | 144.9 ± 2.2 | 136.87 ± 2.1
294.15 K | 213.9 ± 3.3 | 204.73 ± 3.2 | 196.48 ± 3 | 188.03 ± 2.9 | 179.43 ± 2.8 | 170.8 ± 2.6 | 162.6 ± 2.5 | 153.26 ± 2.4 | 144.94 ± 2.2 | 136.9 ± 2.1
295.15 K | 214.26 ± 3.3 | 204.92 ± 3.2 | 196.66 ± 3 | 188.2 ± 2.9 | 179.65 ± 2.8 | 170.96 ± 2.6 | 162.81 ± 2.5 | 153.4 ± 2.4 | 145.07 ± 2.2 | 136.95 ± 2.1
296.15 K | 214.59 ± 3.3 | 205.3 ± 3.2 | 196.95 ± 3 | 188.51 ± 2.9 | 179.89 ± 2.8 | 171.13 ± 2.6 | 162.9 ± 2.5 | 153.53 ± 2.4 | 145.16 ± 2.2 | 136.99 ± 2.1
297.15 K | 214.9 ± 3.3 | 205.51 ± 3.2 | 197.29 ± 3.1 | 188.66 ± 2.9 | 180.09 ± 2.8 | 171.23 ± 2.6 | 163.05 ± 2.5 | 153.63 ± 2.4 | 145.24 ± 2.2 | 137.02 ± 2.1
298.15 K | 215.25 ± 3.3 | 205.83 ± 3.2 | 197.53 ± 3.1 | 188.94 ± 2.9 | 180.26 ± 2.8 | 171.4 ± 2.7 | 163.18 ± 2.5 | 153.72 ± 2.4 | 145.27 ± 2.2 | 137.04 ± 2.1
299.15 K | 215.55 ± 3.3 | 206.18 ± 3.2 | 197.72 ± 3.1 | 189.11 ± 2.9 | 180.39 ± 2.8 | 171.55 ± 2.7 | 163.24 ± 2.5 | 153.84 ± 2.4 | 145.33 ± 2.2 | 137.09 ± 2.1
300.15 K | 215.9 ± 3.3 | 206.45 ± 3.2 | 198 ± 3.1 | 189.43 ± 2.9 | 180.66 ± 2.8 | 171.77 ± 2.7 | 163.47 ± 2.5 | 153.91 ± 2.4 | 145.4 ± 2.2 | 137.11 ± 2.1
301.15 K | 216.32 ± 3.4 | 206.71 ± 3.2 | 198.31 ± 3.1 | 189.64 ± 2.9 | 180.79 ± 2.8 | 171.9 ± 2.7 | 163.5 ± 2.5 | 153.98 ± 2.4 | 145.47 ± 2.2 | 137.15 ± 2.1
302.15 K | 216.6 ± 3.4 | 207.03 ± 3.2 | 198.6 ± 3.1 | 189.82 ± 2.9 | 181.03 ± 2.8 | 172.01 ± 2.7 | 163.71 ± 2.5 | 154.13 ± 2.4 | 145.6 ± 2.3 | 137.2 ± 2.1
303.15 K | 216.95 ± 3.4 | 207.33 ± 3.2 | 198.77 ± 3.1 | 190.01 ± 2.9 | 181.17 ± 2.8 | 172.23 ± 2.7 | 163.89 ± 2.5 | 154.24 ± 2.4 | 145.65 ± 2.3 | 137.25 ± 2.1
304.15 K | 217.33 ± 3.4 | 207.57 ± 3.2 | 199.17 ± 3.1 | 190.33 ± 3 | 181.4 ± 2.8 | 172.31 ± 2.7 | 163.94 ± 2.5 | 154.32 ± 2.4 | 145.75 ± 2.3 | 137.29 ± 2.1
305.15 K | 217.7 ± 3.4 | 207.95 ± 3.2 | 199.39 ± 3.1 | 190.62 ± 3 | 181.54 ± 2.8 | 172.49 ± 2.7 | 164.06 ± 2.5 | 154.37 ± 2.4 | 145.77 ± 2.3 | 137.32 ± 2.1
306.15 K | 218.07 ± 3.4 | 208.28 ± 3.2 | 199.58 ± 3.1 | 190.75 ± 3 | 181.72 ± 2.8 | 172.71 ± 2.7 | 164.29 ± 2.5 | 154.55 ± 2.4 | 145.83 ± 2.3 | 137.39 ± 2.1
307.15 K | 218.39 ± 3.4 | 208.47 ± 3.2 | 199.9 ± 3.1 | 191.03 ± 3 | 181.95 ± 2.8 | 172.88 ± 2.7 | 164.4 ± 2.5 | 154.6 ± 2.4 | 145.96 ± 2.3 | 137.42 ± 2.1
308.15 K | 218.69 ± 3.4 | 208.8 ± 3.2 | 200.2 ± 3.1 | 191.31 ± 3 | 182.17 ± 2.8 | 173 ± 2.7 | 164.48 ± 2.5 | 154.68 ± 2.4 | 146.01 ± 2.3 | 137.49 ± 2.1
309.15 K | 219.1 ± 3.4 | 209.1 ± 3.2 | 200.37 ± 3.1 | 191.5 ± 3 | 182.37 ± 2.8 | 173.19 ± 2.7 | 164.7 ± 2.5 | 154.79 ± 2.4 | 146.13 ± 2.3 | 137.53 ± 2.1
310.15 K | 219.41 ± 3.4 | 209.5 ± 3.2 | 200.65 ± 3.1 | 191.66 ± 3 | 182.48 ± 2.8 | 173.29 ± 2.7 | 164.8 ± 2.5 | 154.9 ± 2.4 | 146.2 ± 2.3 | 137.6 ± 2.1
311.15 K | 219.69 ± 3.4 | 209.78 ± 3.2 | 200.99 ± 3.1 | 191.91 ± 3 | 182.68 ± 2.8 | 173.5 ± 2.7 | 164.88 ± 2.5 | 155 ± 2.4 | 146.21 ± 2.3 | 137.65 ± 2.1
312.15 K | 220.11 ± 3.4 | 210.1 ± 3.3 | 201.15 ± 3.1 | 192.12 ± 3 | 182.91 ± 2.8 | 173.69 ± 2.7 | 165.06 ± 2.6 | 155.16 ± 2.4 | 146.3 ± 2.3 | 137.71 ± 2.1
313.15 K | 220.35 ± 3.4 | 210.39 ± 3.3 | 201.51 ± 3.1 | 192.42 ± 3 | 183.06 ± 2.8 | 173.84 ± 2.7 | 165.16 ± 2.6 | 155.25 ± 2.4 | 146.43 ± 2.3 | 137.77 ± 2.1
